Source: US20210207099A1, “METHODS AND COMPOSITIONS FOR GENERATING CELLS OF ENDODERMAL LINEAGE AND BETA CELLS AND USES THEREOF” (priority 2018, published 2021)

Experiments:
plated stage 4 cells = assay: qRT-PCR and immunostaining of plated stage 4 cells treated with cytoskeletal modifying compounds; format: cell-based, human
Text: For experiments investigating the effects of plating pancreatic progenitors, cells were differentiated with the suspension protocol for stages 1-3. At the end of stage 3, clusters were single cell dispersed with TrypLE and plated onto tissue culture plates coated with various ECM proteins at 0.625×10^6 cells/cm^2. Differentiation media for the remainder of this hybrid protocol were the same as for the suspension protocol with the exception that Y-27632 and Activin A were omitted on days 2-5 of stage 4. Additional compounds were added as indicated in each experiment: 1 μM latrunculin A (Cayman Chemical, 10010630), 1 μM latrunculin B (Cayman Chemical, 10010631), 1 μM cytochalasin D (MilliporeSigma, C2618), 1 μM jasplakinolide (Cayman Chemical, 11705), 10 μM blebbistatin (MilliporeSigma, 203389), 1 μM nocodazole (Cayman Chemical, 13857), 1 μM Y-15 (Cayman Chemical, 14485), 10 μM Y-27632, and 10 μM GDC-0994 (Selleckchem, S7554). A variety of ECM coatings were initially tested with this plating methodology, including collagen I (Corning, 354249), collagen IV (Corning, 354245), fibronectin (Gibco, 33016-015), vitronectin (Gibco, A14700), matrigel (Corning, 356230), gelatin (Fisher, G7-500), and laminins 111, 121, 211, 221, 411, 421, 511, and 521 (Biolamina, LNKT-0201). All subsequent experiments with this hybrid protocol were performed on collagen I.
(§1) Brightfield images were taken with a Leica DMi1 inverted light microscope, and fluorescence images were captured with a Nikon A1Rsi confocal microscope. For immunostaining, cells were fixed with 4% paraformaldehyde (PFA) at room temperature for 30 minutes. They were then blocked and permeabilized for 45 minutes at room temperature with an immunocytochemistry (ICC) solution consisting of 0.1% triton X (Acros Organics, 327371000) and 5% donkey serum (Jackson Immunoresearch, 017000-121) in PBS (Corning, 21-040-CV). Samples were then incubated with primary antibodies diluted in ICC solution overnight at 4° C., washed with ICC, incubated with secondary antibodies diluted in ICC for 2 hours at room temperature, and stained with DAPI for 15 minutes at room temperature. For histological sectioning, whole SC-β cell clusters generated with the planar protocol and mouse kidneys containing transplanted cells were fixed overnight with 4% PFA at 4° C. The in vitro clusters were also embedded in Histogel (Thermo Scientific, hg-4000-012). These samples were then paraffin-embedded and sectioned by the Division of Comparative Medicine (DCM) Research Animal Diagnostic Laboratory Core at Washington University in St. Louis. Paraffin was removed from sectioned samples with Histoclear (Thermo Scientific, C78-2-G), and antigen retrieval was carried out in a pressure cooker (Proteogenix, 2100 Retriever) with 0.05 M EDTA (Ambion, AM9261). Slides were blocked and permeabilized with ICC solution for 45 minutes, incubated with primary antibodies in ICC solution overnight at 4° C., and incubated with secondary antibodies for 2 hours at room temperature. Slides were then sealed with DAPI Fluoromount-G (SouthernBiotech, 0100-20).
RNA was extracted from either whole clusters or cells directly on the plate with the RNeasy Mini Kit (Qiagen, 74016). Samples were treated with a DNAse kit (Qiagen, 79254) during extraction. The High Capacity cDNA Reverse Transcriptase Kit (Applied Biosystems, 4368814) was used to synthesize cDNA on a thermocycler (Applied Biosystems, A37028). The PowerUp SYBR Green Master Mix (Applied Biosystems, A25741) was used on a StepOnePlus (Applied Biosystems), and real time PCR results were analyzed using a ΔΔCt methodology. TBP and GUSB were both used as housekeeping genes. Primer sequences were as follows.

F-actin = F-actin staining and G/F actin ratio by western blot; format: cell-based, human; settings: 1 μM for 24 hours, plated stage 4 cells
Experimental: as §1
G/F actin ratio was determined by western blot following the instructions of the G-actin/F-actin In Vivo Assay Kit (Cytoskeleton, Inc, BK037). Western blot was visualized using SuperSignal West Pico PLUS Chemiluminescent substrate (ThermoScientific, 34577) and the Odyssey FC (LI-COR) imager.

Structure (SMILES): C/C1=C/C(=O)O[C@@H]2C[C@@H](CC[C@H](C)/C=C\C=C\CC1)O[C@@](O)([C@@H]1CSC(=O)N1)C2 [latrunculin A]
- NEUROG3+ and NKX6-1+ cells by immunostaining (plated stage 4 cells; 1 μM, plated cells at the end of stage 4): increases NEUROG3+ and decreases NKX6-1+ cells
- dose response of NEUROG3 expression (plated stage 4 cells; added during stage 4, qRT-PCR): highly dose-dependent
- expression of NEUROG3 and downstream targets NKX2.2 and NEUROD1 (plated stage 4 cells; compound screen, plated stage 4 cells, qRT-PCR): greatly increased expression of NEUROG3
- NKX6-1 expression (plated stage 4 cells; latrunculin treatment during stage 4): followed the reverse trend as NEUROG3
- F-actin polymerization state (F-actin): almost complete depolymerization of F-actin
- G/F-actin ratio (F-actin): increased G/F-actin ratio
- PDX1 expression by immunostaining (F-actin): maintenance of PDX1 expression
